Columns and labels:
[1] = test system: MMP-7; conditions: clinically relevant dosages; cited from earlier work
[2] = test system: neonatal rat ventricular myocyte cultures; assay: Conduction velocity in neonatal rat ventricular myocyte cultures on multi-electrode array; format: cell-based
[3] = test system: epicardial border zone; assay: Canine infarct epicardial border zone, electrograms and microelectrode study; format: in vivo, dog; conditions: dog, in vivo
[4] = test system: HCN2 induced current; assay: Autonomic agonists on HCN2 induced current in hMSCs; format: cell-based
[5] = test system: monomorphic ventricular tachycardia; conditions: one week after gene transfer; cited from earlier work
[6] = Sodium channel steady state inactivation (literature values); conditions: depolarization to −65 mV
Source text: Since slow conduction is an essential feature of reentrant cardiac arrhythmias, it seems worth considering other mammalian sodium channels that might have more favorable properties than the cardiac Na channel in circumstances that favor slow conduction. One such circumstance is membrane depolarization and so the voltage dependence of steady state inactivation is of interest. Cohen Table I provides a comparison of the midpoints for steady state inactivation and slope factor for the cardiac and skeletal muscle sodium channels and a specific mutant of the skeletal muscle channel (G1306E). […] Thus, if cardiac muscle is depolarized to −65 mV, virtually all cardiac sodium channels would be inactivated, while a similar depolarization would leave almost half of normal skeletal muscle sodium channels available. This observation thus relates to a method of the present invention that the use of alternative sodium channels with more favorable biophysical properties serve as a useful antiarrhythmic therapy.
Besides existing sodium channels, much has been learned from structure-function studies in which specific amino acids have been mutated. An extensive study of the S4 domain of the skeletal muscle sodium channel was conducted by Haywood et al. (1996), J. Gen. Physiol. 107, 559-576 in an attempt to understand the origins of enhanced excitability in inherited human myotonia. […]

[7] = cited from earlier work
[8] = test system: Xenopus oocytes
[9] = test system: hMSCs; assay: Patch clamp of If in hMSCs transfected with mHCN2; format: cell-based, human
Source text: FIG. 4: Example of loading hMSC with a gene of interest, studying it biophysically and determining its effect on the heart. Panels A-C study functional expression of If in hMSCs transfected via electroporation with mHCN2 gene. If was expressed in hMSCs transfected with the mHCN2 gene (B) but not in nontransfected stem cells (A). C, Fit by the Boltzmann equation to the normalized tail currents of If gives a midpoint of −91.8+/−0.9 mV and a slope of 8.8+/−0.5 mV (n=9). If was fully activated around −140 mV with an activation threshold of −60 mV. […] Voltage protocol was to hold at −30 mV and hyperpolarize for 1.5 seconds to voltages between −40 and −160 mV in 10-mV increments followed by a 1.5-second voltage step to +20 mV to record the tail currents. Panels D-E show function of hMSCs loaded with HCN2 gene 10 days after injection into canine LV anterior wall in dog in complete heart block. Panels D, placebo experiment, dog injected with saline. […] Panels E, dog injected with approximately 1.2 million hMSCs loaded with HCN2.

[10] = test system: neonatal and adult rat ventricular myocytes; conditions: adenoviral expression; cited from earlier work

COc1cc2ncnc(Nc3ccc(F)c(Cl)c3)c2cc1OCCCN1CCOCC1 [Gefitinib]
MMP-7 activity [1]: inhibits MMP-7 activity

NC1=N[C@H](O)[C@H]2[C@H]3O[C@]4(O)O[C@@H]([C@@H](O)[C@@]2(N1)[C@@H]4O)[C@]3(O)CO [TTX, tetrodotoxin]
conduction velocity decrease [2]: 20%
Vmax and membrane responsiveness response [3]: significant response to TTX

CC(C)NCC(O)c1ccc(O)c(O)c1 (stereo not drawn) [isoproterenol]
effect on expressed HCN2 current [4]: has a direct effect on the expressed current

Cx43: connexin
animals showing no inducible monomorphic VT [5]: 4 of 5

p-conotoxin GIIIA [μ-CTX GIIIA]
effect on CV [2]: CV is reduced in SkM1 cultures to the level recorded in GFP cultures

skM1(G1306E): specific mutant of the skeletal muscle sodium channel
sodium channels available [6]: more than 70%
inactivation midpoint ([7]; as stated in Example 16 group description): −55 mV
activation midpoint ([7]; as worded): −57 mV
Slope factor ([7]; steady state inactivation): −5.2 mV

B1: ERG3: delayed rectifier with steady state window current (protein, UniProt Q9NS40 1-1196, looked up)
Voltage-gated inwardly …: MPVRRGHVAPQNTFLGTIIRKFEGQNKKFIIANARVQNCAIIYCNDGFCEMTGFSRPDVMQKPCTCDFLHGPETKRHDIAQIAQALLGSEERKVEVTYYHKNGSTFICNTHIIPVKNQEGVAMMFIINFEYVTDNENAATPERVNPILPIKTVNRKFFGFKFPGLRVLTYRKQSLPQEDPDVVVIDSSKHSDDSVAMKHFKSPTKESCSPSEADDTKALIQPSKCSPLVNISGPLDHSSPKRQWDRLYPDMLQSSSQLSHSRSRESLCSIRRASSVHDIEGFGVHPKNIFRDRHASEDNGRNVKGPFNHIKSSLLGSTSDSNLNKYSTINKIPQLTLNFSEVKTEKKNSSPPSSDKTIIAPKVKDRTHNVTEKVTQVLSLGADVLPEYKLQTPRINKFTILHYSPFKAVWDWLILLLVIYTAIFTPYSAAFLLNDREEQKRRECGYSCSPLNVVDLIVDIMFIIDILINFRTTYVNQNEEVVSDPAKIAIHYFKGWFLIDMVAAIPFDLLIFGSGSDETTTLIGLLKTARLLRLVRVARKLDRYSEYGAAVLMLLMCIFALIAHWLACIWYAIGNVERPYLTDKIGWLDSLGQQIGKRYNDSDSSSGPSIKDKYVTALYFTFSSLTSVGFGNVSPNTNSEKIFSICVMLIGSLMYASIFGNVSAIIQRLYSGTARYHMQMLRVKEFIRFHQIPNPLRQRLEEYFQHAWTYTNGIDMNMVLKGFPECLQADICLHLNQTLLQNCKAFRGASKGCLRALAMKFKTTHAPPGDTLVHCGDVLTALYFLSRGSIEILKDDIVVAILGKNDIFGEMVHLYAKPGKSNADVRALTYCDLHKIQREDLLEVLDMYPEFSDHFLTNLELTFNLRHESAKADLLRSQSMNDSEGDNCKLRRRKLSFESEGEKENSTNDPEDSADTIRHYQSSKRHFEEKKSRSSSFISSIDDEQKPLFSGIVDSSPGIGKASGLDFEETVPTSGRMHIDKRSHSCKDITDMRSWERENAHPQPEDSSPSALQRAAWGISETESDLTYGEVEQRLDLLQEQLNRLESQMTTDIQTILQLLQKQTTVVPPAYSMVTAGSEYQRPIIQLMRTSQPEASIKTDRSFSPSSQCPEFLDLEKSKLKSKESLSSGVHLNTASEDNLTSLLKQDSDLSLELHLRQRKTYVHPIRHPSLPDSSLSTVGIVGLHRHVSDPGLPGK
potential of maximal steady state conductance [8]: −50 mV
steady state window conductance vs other ERG family members [8]: largest steady state conductance

B2: HERG-G628S: dominant negative HERG mutant (protein, UniProt Q12809 1-1159, looked up, variant G628S)
Voltage-gated inwardly …: MPVRRGHVAPQNTFLDTIIRKFEGQSRKFIIANARVENCAVIYCNDGFCELCGYSRAEVMQRPCTCDFLHGPRTQRRAAAQIAQALLGAEERKVEIAFYRKDGSCFLCLVDVVPVKNEDGAVIMFILNFEVVMEKDMVGSPAHDTNHRGPPTSWLAPGRAKTFRLKLPALLALTARESSVRSGGAGGAGAPGAVVVDVDLTPAAPSSESLALDEVTAMDNHVAGLGPAEERRALVGPGSPPRSAPGQLPSPRAHSLNPDASGSSCSLARTRSRESCASVRRASSADDIEAMRAGVLPPPPRHASTGAMHPLRSGLLNSTSDSDLVRYRTISKIPQITLNFVDLKGDPFLASPTSDREIIAPKIKERTHNVTEKVTQVLSLGADVLPEYKLQAPRIHRWTILHYSPFKAVWDWLILLLVIYTAVFTPYSAAFLLKETEEGPPATECGYACQPLAVVDLIVDIMFIVDILINFRTTYVNANEEVVSHPGRIAVHYFKGWFLIDMVAAIPFDLLIFGSGSEELIGLLKTARLLRLVRVARKLDRYSEYGAAVLFLLMCTFALIAHWLACIWYAIGNMEQPHMDSRIGWLHNLGDQIGKPYNSSGLGGPSIKDKYVTALYFTFSSLTSVGFSNVSPNTNSEKIFSICVMLIGSLMYASIFGNVSAIIQRLYSGTARYHTQMLRVREFIRFHQIPNPLRQRLEEYFQHAWSYTNGIDMNAVLKGFPECLQADICLHLNRSLLQHCKPFRGATKGCLRALAMKFKTTHAPPGDTLVHAGDLLTALYFISRGSIEILRGDVVVAILGKNDIFGEPLNLYARPGKSNGDVRALTYCDLHKIHRDDLLEVLDMYPEFSDHFWSSLEITFNLRDTNMIPGSPGSTELEGGFSRQRKRKLSFRRRTDKDTEQPGEVSALGPGRAGAGPSSRGRPGGPWGESPSSGPSSPESSEDEGPGRSSSPLRLVPFSSPRPPGEPPGGEPLMEDCEKSSDTCNPLSGAFSGVSNIFSFWGDSRGRQYQELPRCPAPTPSLLNIPLSSPGRRPRGDVESRLDALQRQLNRLETRLSADMATVLQLLQRQMTLVPPAYSAVTTPGPGPTSTSPLLPVSPLPTLTLDSLSQVSQFMACEELPPGAPELPQEGPTRRLSLPGQLGALTSQPLHRHGSDPGS
animals showing no inducible monomorphic VT [5]: 5 of 5

B3: mHCN2: pacemaker channel gene (protein, UniProt O88703 1-863, looked up)
Potassium/sodium …: MDARGGGGRPGDSPGTTPAPGPPPPPPPPAPPQPQPPPAPPPNPTTPSHPESADEPGPRARLCSRDSACTPGAAKGGANGECGRGEPQCSPEGPARGPKVSFSCRGAASGPSAAEEAGSEEAGPAGEPRGSQASFLQRQFGALLQPGVNKFSLRMFGSQKAVEREQERVKSAGAWIIHPYSDFRFYWDFTMLLFMVGNLIIIPVGITFFKDETTAPWIVFNVVSDTFFLMDLVLNFRTGIVIEDNTEIILDPEKIKKKYLRTWFVVDFVSSIPVDYIFLIVEKGIDSEVYKTARALRIVRFTKILSLLRLLRLSRLIRYIHQWEEIFHMTYDLASAVMRICNLISMMLLLCHWDGCLQFLVPMLQDFPSDCWVSINNMVNHSWSELYSFALFKAMSHMLCIGYGRQAPESMTDIWLTMLSMIVGATCYAMFIGHATALIQSLDSSRRQYQEKYKQVEQYMSFHKLPADFRQKIHDYYEHRYQGKMFDEDSILGELNGPLREEIVNFNCRKLVASMPLFANADPNFVTAMLTKLKFEVFQPGDYIIREGTIGKKMYFIQHGVVSVLTKGNKEMKLSDGSYFGEICLLTRGRRTASVRADTYCRLYSLSVDNFNEVLEEYPMMRRAFETVAIDRLDRIGKKNSILLHKVQHDLSSGVFNNQENAIIQEIVKYDREMVQQAELGQRVGLFPPPPPPQVTSAIATLQQAVAMSFCPQVARPLVGPLALGSPRLVRRAPPGPLPPAASPGPPAASPPAAPSSPRAPRTSPYGVPGSPATRVGPALPARRLSRASRPLSASQPSLPHGVPAPSPAASARPASSSTPRLGPAPTARTAAPSPDRRDSASPGAASGLDPLDSARSRLSSNL
activation threshold [9]: −60 mV
voltage of full activation [9]: around −140 mV
midpoint of If activation (Boltzmann fit to tail currents) ([9]; hMSCs transfected via electroporation, n=9): −91.8+/−0.9 mV
slope of If activation ([9]; n=9): 8.8+/−0.5 mV
voltage dependence of activation, neonatal vs adult myocytes [10]: about 20 mV

Source: US20100189701A1, “METHODS AND COMPOSITIONS TO TREAT ARRHYTHMIAS” (priority 2007, published 2010)
